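48-hour exposure; five concentrations; linearly interpolated endpoints. Abbreviation: GI50, concentration required for 50% inhibition of growth.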 Active and inactive are the calls of the source. Cut-off read from the data, not from the text of the source: active = GI50 up to about 1.1 µM and inactive = higher.
Columns and labels:
Experiment in all cases: inhibition of tumour cell growth, NCI panel, 48 h
[1] = test system: KM12
[2] = test system: K562
[3] = test system: DMS-273
[4] = test system: HOP-62
[5] = test system: M19-MEL
[6] = test system: HOP-92
[7] = test system: A549
[8] = test system: CAKI-1
[9] = test system: Malme-3M
[10] = test system: HOP-18
[11] = test system: ACHN
[12] = test system: CCRF-CEM
[13] = test system: UO-31
[14] = test system: HCC 2998
[15] = test system: KM-20L2
[16] = test system: SF-295
[17] = test system: NCI-H226
[18] = test system: TK-10
[19] = test system: U-251
[20] = test system: MOLT-4
[21] = test system: SNB-19
[22] = test system: NCI-H460
[23] = test system: SNB-75
[24] = test system: NCI-H23
[25] = test system: SN12C
[26] = test system: XF498
[27] = test system: OVCAR-8
[28] = test system: DMS-114
[29] = test system: OVCAR-4
[30] = test system: A498
[31] = test system: LXFL 529
[32] = test system: SK-MEL-28
[33] = test system: OVCAR-5
[34] = test system: SW-620
[35] = test system: HL-60
[36] = test system: IGROV-1
[37] = test system: SF-268
[38] = test system: M14
[39] = test system: RPMI-8226
[40] = test system: HT-29
[41] = test system: RXF 631
[42] = test system: NCI-H522
[43] = test system: LOX IMVI
[44] = test system: SK-MEL-5
[45] = test system: SK-OV-3
[46] = test system: EKVX
[47] = test system: SK-MEL-2
[48] = test system: SF-539
[49] = test system: SNB-78
[50] = test system: UACC-257
[51] = test system: RXF 393
[52] = test system: DLD-1
[53] = test system: HCT-15
[54] = test system: SR
[55] = test system: 786-0
[56] = test system: UACC-62
[57] = test system: HCT-116
[58] = test system: COLO 205
[59] = test system: OVCAR-3

O=c1nc(N2CCCC2)nc(N2CCCC2)s1
GI50 [1]: > 100 µM (inactive) | GI50 [2]: > 100 µM (inactive) | GI50 [3]: > 100 µM (inactive) | GI50 [4]: > 100 µM (inactive) | GI50 [5]: > 100 µM (inactive) | GI50 [6]: > 100 µM (inactive) | GI50 [7]: > 100 µM (inactive) | GI50 [8]: 97.9 µM (inactive) | GI50 [9]: > 100 µM (inactive) | GI50 [10]: > 100 µM (inactive) | GI50 [11]: > 100 µM (inactive) | GI50 [12]: > 100 µM (inactive) | GI50 [13]: 78.7 µM (inactive) | GI50 [14]: > 100 µM (inactive) | GI50 [15]: > 100 µM (inactive) | GI50 [16]: > 100 µM (inactive) | GI50 [17]: 7.21 µM (inactive) | GI50 [18]: > 100 µM (inactive) | GI50 [19]: > 100 µM (inactive) | GI50 [20]: > 100 µM (inactive) | GI50 [21]: > 100 µM (inactive) | GI50 [22]: > 100 µM (inactive) | GI50 [23]: > 100 µM (inactive) | GI50 [24]: > 100 µM (inactive) | GI50 [25]: > 100 µM (inactive) | GI50 [26]: > 100 µM (inactive) | GI50 [27]: > 100 µM (inactive) | GI50 [28]: > 100 µM (inactive) | GI50 [29]: > 100 µM (inactive) | GI50 [30]: > 100 µM (inactive) | GI50 [31]: > 100 µM (inactive) | GI50 [32]: > 100 µM (inactive) | GI50 [33]: > 100 µM (inactive) | GI50 [34]: > 100 µM (inactive) | GI50 [35]: > 100 µM (inactive) | GI50 [36]: > 100 µM (inactive) | GI50 [37]: > 100 µM (inactive) | GI50 [38]: > 100 µM (inactive) | GI50 [39]: > 100 µM (inactive) | GI50 [40]: > 100 µM (inactive) | GI50 [41]: > 100 µM (inactive) | GI50 [42]: > 100 µM (inactive) | GI50 [43]: > 100 µM (inactive) | GI50 [44]: > 100 µM (inactive) | GI50 [45]: > 100 µM (inactive) | GI50 [46]: > 100 µM (inactive) | GI50 [47]: > 100 µM (inactive) | GI50 [48]: > 100 µM (inactive) | GI50 [49]: > 100 µM (inactive) | GI50 [50]: > 100 µM (inactive) | GI50 [51]: > 100 µM (inactive) | GI50 [52]: > 100 µM (inactive) | GI50 [53]: > 100 µM | GI50 [54]: > 100 µM (inactive) | GI50 [55]: > 100 µM (inactive) | GI50 [56]: > 100 µM (inactive) | GI50 [57]: > 100 µM (inactive)

N#C/C(=C\c1ccc(C(O)P(=O)(O)O)cc1)C(N)=O (configuration not stated)
GI50 [58]: > 100 µM (inactive) | GI50 [1]: > 100 µM (inactive) | GI50 [2]: > 100 µM (inactive) | GI50 [3]: > 100 µM (inactive) | GI50 [4]: 73.3 µM (inactive) | GI50 [5]: > 100 µM (inactive) | GI50 [59]: > 100 µM (inactive) | GI50 [6]: > 100 µM (inactive) | GI50 [7]: > 100 µM (inactive) | GI50 [9]: > 100 µM (inactive) | GI50 [10]: > 100 µM (inactive) | GI50 [11]: 14.5 µM (inactive) | GI50 [12]: 9.93 µM (inactive) | GI50 [13]: > 100 µM (inactive) | GI50 [14]: 3.66 µM (inactive) | GI50 [15]: > 100 µM (inactive) | GI50 [16]: > 100 µM (inactive) | GI50 [17]: > 100 µM (inactive) | GI50 [18]: > 100 µM (inactive) | GI50 [19]: 60.5 µM (inactive) | GI50 [20]: 24.9 µM (inactive) | GI50 [21]: > 100 µM (inactive) | GI50 [22]: 6.44 µM (inactive) | GI50 [24]: > 100 µM (inactive) | GI50 [25]: > 100 µM (inactive) | GI50 [26]: > 100 µM (inactive) | GI50 [27]: > 100 µM (inactive) | GI50 [28]: 17.2 µM (inactive) | GI50 [29]: > 100 µM (inactive) | GI50 [30]: > 100 µM (inactive) | GI50 [31]: > 100 µM (inactive) | GI50 [32]: > 100 µM (inactive) | GI50 [34]: > 100 µM (inactive) | GI50 [35]: 6.01 µM (inactive) | GI50 [36]: > 100 µM (inactive) | GI50 [37]: > 100 µM (inactive) | GI50 [38]: > 100 µM (inactive) | GI50 [39]: > 100 µM (inactive) | GI50 [40]: > 100 µM (inactive) | GI50 [41]: > 100 µM (inactive) | GI50 [42]: > 100 µM (inactive) | GI50 [43]: > 100 µM (inactive) | GI50 [44]: > 100 µM (inactive) | GI50 [45]: > 100 µM (inactive) | GI50 [46]: > 100 µM (inactive) | GI50 [47]: > 100 µM (inactive) | GI50 [48]: 35.3 µM (inactive) | GI50 [49]: > 100 µM (inactive) | GI50 [50]: > 100 µM (inactive) | GI50 [52]: > 100 µM (inactive) | GI50 [53]: > 100 µM | GI50 [55]: 29.8 µM (inactive) | GI50 [56]: 7.83 µM (inactive) | GI50 [57]: 76.9 µM (inactive)

COC(=O)/C=C1/CCC2[C@@H](C(=O)CC3[C@]2(C)CCC[C@@]3(C)C(=O)OC)C1C (some centres not stated)
GI50 [58]: 5.57 µM (inactive) | GI50 [1]: 12.6 µM (inactive) | GI50 [2]: 3.18 µM (inactive) | GI50 [3]: 12.7 µM (inactive) | GI50 [4]: 21.9 µM (inactive) | GI50 [5]: 15.5 µM (inactive) | GI50 [59]: 7.67 µM (inactive) | GI50 [6]: 5.13 µM (inactive) | GI50 [7]: 15.6 µM (inactive) | GI50 [8]: 5.36 µM (inactive) | GI50 [9]: 16.1 µM (inactive) | GI50 [10]: 14.4 µM (inactive) | GI50 [11]: 10.1 µM (inactive) | GI50 [12]: 3.56 µM (inactive) | GI50 [13]: 15.1 µM (inactive) | GI50 [14]: 20.1 µM (inactive) | GI50 [15]: 13.1 µM (inactive) | GI50 [16]: 17.7 µM (inactive) | GI50 [17]: 21.2 µM (inactive) | GI50 [18]: 20 µM (inactive) | GI50 [19]: 15.4 µM (inactive) | GI50 [20]: 4.04 µM (inactive) | GI50 [21]: 17.4 µM (inactive) | GI50 [22]: 14.2 µM (inactive) | GI50 [23]: 8.99 µM (inactive) | GI50 [24]: 11.2 µM (inactive) | GI50 [25]: 15.3 µM (inactive) | GI50 [26]: 15.3 µM (inactive) | GI50 [27]: 12.3 µM (inactive) | GI50 [28]: 10.3 µM (inactive) | GI50 [29]: 8.73 µM (inactive) | GI50 [30]: 17.7 µM (inactive) | GI50 [31]: 6.22 µM (inactive) | GI50 [32]: 13.3 µM (inactive) | GI50 [33]: 20 µM (inactive) | GI50 [34]: 5.86 µM (inactive) | GI50 [35]: 2.61 µM (inactive) | GI50 [36]: 20.2 µM (inactive) | GI50 [37]: 15 µM (inactive) | GI50 [38]: 13.2 µM (inactive) | GI50 [39]: 2.98 µM (inactive) | GI50 [40]: 5.64 µM (inactive) | GI50 [41]: 15.5 µM (inactive) | GI50 [42]: 5.07 µM (inactive) | GI50 [44]: 5.69 µM (inactive) | GI50 [45]: 30.9 µM (inactive) | GI50 [46]: 24 µM (inactive) | GI50 [47]: 16 µM (inactive) | GI50 [48]: 14.9 µM (inactive) | GI50 [49]: 10 µM (inactive) | GI50 [50]: 10.4 µM (inactive) | GI50 [52]: 12.7 µM (inactive) | GI50 [53]: 14 µM | GI50 [55]: 14.9 µM (inactive) | GI50 [56]: 10.7 µM (inactive) | GI50 [57]: 5.79 µM (inactive)

Source: ChEMBL document CHEMBL1201862, “PubChem BioAssay data set” (2004)
